From the supplement of paper PMC10883282

How the values were obtained:
Experiment in all cases: standardised AUC of viability dose-response curve (72 h) (fraction (0-1)); higher = less growth inhibition (more resistant)
[1] = system: A204
Outline: (§1)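 Sarcoma cell lines in 384-well plates were treated in triplicate for 72 h with 2.5 µl of a compound dilution series, made in 1:3 steps from 10 mM to 0.0002 mM on the compound plate. ATPLite viability was scaled from 1 (full) to 0 (none) and fitted per drug and cell line with a four-parameter log-logistic model. The values are standardised areas under the dose-response curve in log-dose space, from a modified drexplorer computeAUC. On that scale, 1 means no response and 0 means full response.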

[2] = system: G401
Outline: as §1

[3] = system: HS729
Outline: as §1

[4] = system: HT1080
Outline: as §1

[5] = system: KHOS-240S
Outline: as §1

[6] = system: KHOS-NP
Outline: as §1

[7] = system: MES-SA
Outline: as §1

[8] = system: RD-ES
Outline: as §1

[9] = system: RD
Outline: as §1

[10] = system: SK-ES-1
Outline: as §1

[11] = system: SK-LMS-1
Outline: as §1

[12] = system: SW1353
Outline: as §1

[13] = system: SW684
Outline: as §1

[14] = system: SW872
Outline: as §1

[15] = system: SW982
Outline: as §1

[16] = system: SYO-1
Outline: as §1

[17] = system: VA-ES-BJ
Outline: as §1

SMILES	standardised AUC [1]	standardised AUC [2]	standardised AUC [3]	standardised AUC [4]	standardised AUC [5]	standardised AUC [6]	standardised AUC [7]	standardised AUC [8]	standardised AUC [9]	standardised AUC [10]	standardised AUC [11]	standardised AUC [12]	standardised AUC [13]	standardised AUC [14]	standardised AUC [15]	standardised AUC [16]	standardised AUC [17]
Cc1cnc(Nc2ccc(OCCN3CCCC3)cc2)nc1Nc1cccc(S(=O)(=O)NC(C)(C)C)c1 [FEDRATINIB]	0.746	0.784	0.756	0.86	0.766	0.886	0.756	0.733	0.763	0.691	0.847	0.779	0.825	0.754	0.677	0.685	0.768
C=CC(=O)N1CCC[C@@H](n2nc(-c3ccc(Oc4ccccc4)cc3)c3c(N)ncnc32)C1 [IBRUTINIB]	0.967	0.973	0.941	1	0.954	0.966	0.948	0.994	0.997	0.991	0.978	0.85	0.997	0.934	0.992	0.892	0.995
CCCS(=O)(=O)Nc1ccc(F)c(C(=O)c2c[nH]c3ncc(-c4ccc(Cl)cc4)cc23)c1F [VEMURAFENIB]	0.977	0.992	0.978	0.983	0.979	0.983	0.956	0.989	0.978	0.959	0.93	0.946	0.97	0.802	0.949	0.978	0.983
COc1cc2nccc(Oc3ccc(NC(=O)Nc4cc(C)on4)c(Cl)c3)c2cc1OC [TIVOZANIB]	0.658	0.933	0.971	0.995	0.954	0.983	0.931	0.974	0.985	0.971	0.956	0.97	0.985	0.982	0.974	0.807	0.995
CNC(=O)c1ccc(-c2cnc3ncc(Cc4ccc5ncccc5c4)n3n2)cc1F [CAPMATINIB]	0.971	0.973	0.989	0.976	0.986	0.998	0.982	1	0.995	1	0.68	1	0.958	0.989	0.985	1	0.873
CC(C)N1CCN(Cc2cnc(-c3cc(-c4cccc5[nH]ccc45)cc4[nH]ncc34)o2)CC1 [NEMIRALISIB]	0.908	0.947	0.906	0.996	0.944	0.998	0.95	0.95	0.924	0.935	0.944	0.917	0.726	0.919	0.916	0.916	0.952
COc1c(OCCCN2CCOCC2)ccc2c1N=C(NC(=O)c1cnc(N)nc1)N1CCN=C21 [COPANLISIB]	0.516	0.654	0.583	0.83	0.693	0.802	0.474	0.472	0.556	0.483	0.617	0.675	0.569	0.541	0.609	0.655	0.568
Cc1nc(NC(=O)N2CCC[C@H]2C(N)=O)sc1-c1ccnc(C(C)(C)C(F)(F)F)c1 [ALPELISIB]	0.848	0.845	0.78	0.963	0.895	0.964	0.818	0.793	0.86	0.799	0.867	0.909	0.887	0.819	0.935	0.814	0.852
COc1cc2c(Oc3ccc4[nH]c(C)cc4c3F)ncnc2cc1OCCCN1CCCC1 [CEDIRANIB]	0.622	0.797	0.929	0.996	0.939	0.98	0.91	0.987	0.966	0.917	0.966	0.922	0.995	0.986	0.959	0.743	1
Cc1nc(-c2cn3c(n2)-c2ccc(-c4cnn(C(C)(C)C(N)=O)c4)cc2OCC3)n(C(C)C)n1 [TASELISIB]	0.675	0.744	0.77	0.989	0.843	0.975	0.664	0.675	0.727	0.68	0.771	0.855	0.702	0.76	0.826	0.84	0.727
COc1cccc2c1C(=O)c1c(O)c3c(c(O)c1C2=O)C[C@@](O)(C(=O)CO)C[C@@H]3O[C@H]1C[C@H](N)[C@H](O)[C@H](C)O1 [DOXORUBICIN]	0.532	0.577	0.638	0.6	0.588	0.694	0.496	0.472	0.609	0.439	0.672	0.669	0.796	0.655	0.537	0.47	0.574
CN1CCC(COc2cnc(-c3cccc(Cn4nc(-c5cccc(C#N)c5)ccc4=O)c3)nc2)CC1 [TEPOTINIB]	0.985	0.978	0.928	0.972	0.963	0.954	0.98	0.979	0.998	0.97	0.732	0.987	0.983	0.972	0.985	0.945	0.898
CC[C@H](Nc1ncnc2[nH]cnc12)c1nc2cccc(F)c2c(=O)n1-c1ccccc1 [IDELALISIB]	0.939	0.931	0.905	0.99	0.968	0.978	0.957	0.968	0.982	0.963	0.919	0.897	0.761	0.937	0.971	0.949	0.934
Cc1cc(C)c(/C=C2\C(=O)Nc3ccccc32)[nH]1 [SEMAXANIB]	0.888	0.983	0.938	0.983	0.939	0.98	0.976	0.968	0.993	0.978	0.954	0.979	0.939	0.993	0.936	0.857	0.947
C=CC(=O)Nc1cccc(Oc2nc(Nc3ccc(N4CCN(C)CC4)cc3)nc3ccsc23)c1 [OLMUTINIB]	0.98	0.964	0.931	0.951	0.954	0.993	0.945	0.982	0.951	0.936	0.927	0.918	0.899	0.964	0.907	0.923	0.939
N#CC[C@H](C1CCCC1)n1cc(-c2ncnc3[nH]ccc23)cn1 [RUXOLITINIB]	0.951	0.97	0.951	0.994	0.944	0.977	0.944	0.989	0.992	0.981	0.987	0.982	0.948	0.945	0.936	0.978	0.973
CCc1cc2c(cc1N1CCC(N3CCOCC3)CC1)C(C)(C)c1[nH]c3cc(C#N)ccc3c1C2=O [ALECTINIB]	1	0.997	1	0.991	0.967	0.989	1	1	0.99	0.993	0.985	1	1	1	0.989	1	0.949
CC1(C)CNc2cc(NC(=O)c3cccnc3NCc3ccncc3)ccc21 [MOTESANIB]	0.756	0.957	0.944	0.981	0.97	0.975	0.995	0.994	1	0.991	0.983	0.975	0.95	0.978	0.997	0.866	1
COc1cc2/c(=N/c3ccc(Br)cc3F)nc[nH]c2cc1OCC1CCN(C)CC1 [VANDETANIB]	0.843	0.925	0.921	0.968	0.879	0.961	0.912	0.911	0.852	0.853	0.894	0.906	0.954	0.886	0.836	0.757	0.955
CNC(=O)c1cc(Oc2ccc(NC(=O)Nc3ccc(Cl)c(C(F)(F)F)c3)c(F)c2)ccn1 [REGORAFENIB]	0.768	0.874	0.873	0.96	0.936	0.856	0.934	0.974	0.91	0.943	0.904	0.958	0.992	0.93	0.96	0.816	0.977
CN1CCN(c2ccc3nc(-c4c(N)c5c(F)cccc5[nH]c4=O)[nH]c3c2)CC1 [DOVITINIB]	0.748	0.833	0.821	0.906	0.81	0.917	0.81	0.82	0.904	0.749	0.904	0.86	0.902	0.823	0.792	0.717	0.865
C[C@]1(O)C[C@@H](c2nc(-c3ccc4ccc(-c5ccccc5)nc4c3)c3c(N)nccn32)C1 [LINSITINIB]	0.922	0.817	0.776	0.954	0.915	0.973	0.952	0.73	0.836	0.708	0.973	0.979	0.965	0.936	0.9	0.876	0.936
